# PubChem BioAssay (NCI)
#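 Five concentrations, 48 hours, 96-well plates. GI50: concentration for 50% inhibition of growth. TGI: concentration producing complete growth inhibition.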
# Assays:
# Experiment in all cases: DTP human tumour cell line panel, 48 h
# MALME-3M melanoma = tested on: MALME-3M melanoma
# OVCAR-5 ovarian = tested on: OVCAR-5 ovarian
# SN12C renal = tested on: SN12C renal
# SNB-19 CNS = tested on: SNB-19 CNS
# NCI-H226 lung = tested on: NCI-H226 lung
# SF-268 CNS = tested on: SF-268 CNS
# OVCAR-4 ovarian = tested on: OVCAR-4 ovarian
# CAKI-1 renal = tested on: CAKI-1 renal
# UO-31 renal = tested on: UO-31 renal
# BT-549 breast = tested on: BT-549 breast
SMILES,TGI (MALME-3M melanoma),TGI (OVCAR-5 ovarian),TGI (SN12C renal),TGI (SNB-19 CNS),TGI (NCI-H226 lung),TGI (SF-268 CNS),TGI (OVCAR-4 ovarian),TGI (CAKI-1 renal),TGI (UO-31 renal),TGI (BT-549 breast),GI50 (OVCAR-5 ovarian),GI50 (SN12C renal),GI50 (SNB-19 CNS),GI50 (NCI-H226 lung),GI50 (BT-549 breast),GI50 (SF-268 CNS),GI50 (OVCAR-4 ovarian),GI50 (CAKI-1 renal),GI50 (MALME-3M melanoma),GI50 (UO-31 renal)
Cc1c(NC(=O)C(=O)N=NC(=O)c2ccncc2)c(O)c2ccccc2c1O,16.4 µM,30.8 µM,24.3 µM,48.3 µM,29.5 µM,60.5 µM,27.5 µM,57 µM,40.5 µM,–,–,–,–,–,–,–,–,–,–,–
O=C1C2=C(c3ccccc31)C(c1cccc(Cl)c1)NC(=S)N2 (centres undefined),> 100 µM,> 100 µM,> 100 µM,> 100 µM,> 100 µM,> 100 µM,> 100 µM,> 100 µM,> 100 µM,–,–,–,–,–,–,–,–,–,–,–
N[C@H]1C2C3CC4C5CC(C42)C1(c1ccccc1)C53 (some centres undefined),> 100 µM,> 100 µM,> 100 µM,> 100 µM,> 100 µM,> 100 µM,> 100 µM,> 100 µM,> 100 µM,–,–,–,–,–,–,–,–,–,–,–
O=[N+]([O-])c1ccc(-c2ccc(/C=N/n3c(-c4ccc(Cl)cc4)n[nH]c3=S)o2)cc1,43.1 µM,> 100 µM,> 100 µM,> 72.7 µM,> 58.5 µM,> 100 µM,> 61.8 µM,> 90.1 µM,> 100 µM,–,–,–,–,–,–,–,–,–,–,–
ClC(=Nc1cccc2ccccc12)N(c1ccccc1)c1ccccc1,> 100 µM,> 100 µM,> 100 µM,> 100 µM,–,–,> 100 µM,> 100 µM,> 100 µM,> 100 µM,–,–,–,–,–,–,–,–,–,–
O=c1c(Cl)nnc2sc3ccccc3n12,–,> 100 µM,> 100 µM,> 100 µM,> 100 µM,> 100 µM,> 100 µM,6.9 µM,–,> 100 µM,54.1 µM,24.6 µM,77.5 µM,43.1 µM,64.9 µM,51.1 µM,46.9 µM,0.813 µM,–,–
Cn1nc(-c2ccccc2NC(=O)C(F)(F)F)c(=O)n(C)c1=S,> 100 µM,> 100 µM,> 100 µM,> 100 µM,> 100 µM,56 µM,62.3 µM,89.4 µM,74.4 µM,–,–,–,–,–,–,–,–,–,–,–
CCCCCCC(=O)C/C(CCC(=O)N(Cc1ccccc1)Cc1ccccc1)=N\Nc1ccc([N+](=O)[O-])cc1[N+](=O)[O-],> 100 µM,> 100 µM,> 100 µM,> 100 µM,> 100 µM,> 100 µM,> 100 µM,> 100 µM,> 100 µM,–,–,–,–,–,–,–,–,–,–,–
CC1=COC(=O)c2ccccc2N1,> 100 µM,> 100 µM,> 100 µM,> 100 µM,> 100 µM,> 100 µM,> 100 µM,> 100 µM,> 100 µM,–,–,–,–,–,–,–,–,–,–,–
CCOP(=O)(OCC)C1C(=O)O[C@H]2CCCC[C@@H]12 (some centres undefined),> 100 µM,> 100 µM,> 100 µM,> 100 µM,–,> 100 µM,> 100 µM,> 100 µM,–,–,–,–,–,–,–,–,–,–,–,–
Cc1ccc2c(c1)NC(c1ccc(C(=O)O)cc1)c1cccn1-2 (centres undefined),–,> 100 µM,> 100 µM,94.6 µM,> 100 µM,–,64 µM,72.7 µM,–,> 100 µM,–,–,–,–,–,–,–,–,–,–
C/C(=N\N(C)C)c1sc(-n2nc(-c3ccccc3)cc2-c2ccccc2)nc1C,> 100 µM,82.4 µM,> 100 µM,> 100 µM,> 100 µM,> 100 µM,> 100 µM,> 100 µM,> 100 µM,–,–,–,–,–,–,–,–,–,–,–
CC(=O)[CH-]C(=O)c1ccccc1.CC(=O)[CH-]C(=O)c1ccccc1.CCN(CC)CC[O-].CCN(CC)CC[O-].Cl.[Ti+4],60.8 µM,> 100 µM,> 100 µM,69.5 µM,62.4 µM,> 100 µM,> 100 µM,> 100 µM,74.8 µM,–,59.6 µM,39.5 µM,23.7 µM,23 µM,–,35.2 µM,56.5 µM,40.1 µM,22.8 µM,21.1 µM
O=C1CC(=O)N(C2CCCCC2)C(=O)N1c1ccccc1S(=O)(=O)Oc1ccccc1,–,> 100 µM,> 100 µM,> 100 µM,–,> 100 µM,> 100 µM,> 100 µM,33 µM,> 100 µM,–,–,–,–,–,–,–,–,–,–
CCOC(=O)/N=c1\ss/c(=N\C(=S)N(C)C)n1-c1ccccc1,> 100 µM,> 100 µM,> 100 µM,> 100 µM,> 100 µM,> 100 µM,–,> 100 µM,> 100 µM,–,–,> 100 µM,–,> 100 µM,–,44.7 µM,> 100 µM,–,> 100 µM,> 100 µM
CC(=O)Oc1c(C)n(CCCl)ccc1=O,> 100 µM,> 100 µM,> 100 µM,> 100 µM,> 100 µM,> 100 µM,> 100 µM,> 100 µM,> 100 µM,–,–,–,–,–,–,–,–,–,–,–
CCCCOC(=O)C(=O)C(CC(C(=O)Cc1ccccc1)c1ccccc1)C(=O)C=C(C)C (centres undefined),–,> 100 µM,> 100 µM,> 100 µM,> 100 µM,> 100 µM,> 100 µM,> 100 µM,> 100 µM,> 100 µM,–,–,–,–,–,–,–,–,–,–
C=C(c1ccccc1N)[C@@]1(O)C[C@H](/C(=C\C)CO)C[C@@H]1NCc1ccccc1,28.4 µM,–,> 100 µM,79.5 µM,33.4 µM,> 100 µM,> 100 µM,–,42.3 µM,–,–,–,–,–,–,–,–,–,–,–
COc1cc2c3c(n(C)c(=O)c2cc1OC)-c1cc2c(cc1/C3=C\CCCCN)OCO2,–,35.4 µM,24.4 µM,71.9 µM,–,–,57.3 µM,17.1 µM,13.5 µM,–,15.5 µM,9.39 µM,23.9 µM,–,–,–,17.2 µM,4.41 µM,–,3.28 µM
COC(=O)Nc1nc2ccc(C(=O)c3ccc[nH]3)cc2[nH]1,> 31.3 µM,> 100 µM,> 100 µM,> 54.7 µM,–,> 100 µM,> 100 µM,> 100 µM,–,> 100 µM,–,–,–,–,–,–,–,–,–,–
CC12OC(C(=O)C13CC3)C1C(=O)c3ccccc3C(=O)C12 (centres undefined),87.1 µM,> 100 µM,–,> 100 µM,–,46.2 µM,–,38.5 µM,> 100 µM,76.9 µM,47.4 µM,–,36.4 µM,–,36.2 µM,19.2 µM,–,21.6 µM,27.9 µM,32.8 µM
